Experimental data reported in publication PMC9249544, “Identification of Flavonoid C-Glycosides as Promising Antidiabetics Targeting Protein Tyrosine Phosphatase 1B” (Journal of Diabetes Research, 2022).

Target: T1, Protein tyrosine phosphatase 1B (PTP1B) (Homo sapiens, UniProt P18031)
T1 construct: gene PTPN1
T1 sequence (P18031 1-435): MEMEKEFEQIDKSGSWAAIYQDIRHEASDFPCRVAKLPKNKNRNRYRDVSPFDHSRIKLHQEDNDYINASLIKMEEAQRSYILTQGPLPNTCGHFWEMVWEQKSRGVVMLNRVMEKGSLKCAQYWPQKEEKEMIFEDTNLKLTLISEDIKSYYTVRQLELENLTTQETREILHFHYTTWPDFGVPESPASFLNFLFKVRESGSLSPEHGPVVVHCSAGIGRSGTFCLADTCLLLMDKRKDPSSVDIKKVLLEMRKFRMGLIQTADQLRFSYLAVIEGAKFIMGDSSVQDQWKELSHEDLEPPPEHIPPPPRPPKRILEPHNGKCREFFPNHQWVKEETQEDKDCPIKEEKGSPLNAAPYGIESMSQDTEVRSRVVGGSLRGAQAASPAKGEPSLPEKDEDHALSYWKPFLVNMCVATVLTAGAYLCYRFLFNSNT
Test: p-NPP hydrolysis assay with human recombinant PTP1B ([…] nm); Lineweaver-Burk kinetics
Format: biochemical

With `O=c1cc(-c2ccc(O)c(O)c2)oc2c([C@@H]3O[C@H](CO)[C@@H](O)[C@H](O)[C@H]3O)c(O)cc(O)c12` [orientin] the IC50 was 401 µM.
